Measured values taken from paper PMC8279415, “Targeting Acute Myelogenous Leukemia Using Potent Human Dihydroorotate Dehydrogenase Inhibitors Based on the 2-Hydroxypyrazolo[1,5-a]pyridine Scaffold: SAR of the Biphenyl Moiety” (Journal of Medicinal Chemistry, 2021).
Entries after “also recorded” stand apart in the source; their conditions may differ.

Key:
[1] = In vitro metabolic profile in rat-liver microsomes; format: in vitro ADME; conditions: for metabolites identified in sample C: active rat-liver microsomes and regenerating system, HPLC-HRMS
Experimental: SyGMa (systematic generation of potential metabolites) software, a tool that lists predicted metabolites with associated empirical probability scores, was used to identify putative metabolites, which were then investigated by analyzing samples with liquid chromatography coupled to high-resolution mass spectrometry (HPLC–HRMS). […] The full-scan MS data acquired for all of the samples were analyzed to find the m/z values of the predicted molecular structures. In order to exclude interfering signals, the results obtained were compared to blank samples and common background peaks were not considered.
Rat-liver microsomes (Sprague-Dawley, male, Sigma-Aldrich; 20 mg/mL protein concentration) were incubated with the candidate compound solution (5 μM final concentration, with 1% DMSO) and Tris buffer (0.1 M, pH = 7.4). The regenerating system, which slowly generated coenzyme units over the incubation time, leading to a better reproduction of in vivo behavior, was composed of MgCl2 (3.3 mM), NADP^+ (1.3 mM), Glu6P (3.5 mM), and Glu6P dehydrogenase (0.5 U/mL).
The incubation time started with the addition of the microsomes suspension (0.5 mg/mL).
Metabolic reactions were stopped by adding 100 μL of cooled acetonitrile to the 100 μL sample of the incubation mixture. Samples were centrifuged to provoke protein precipitation, and the supernatants were immediately stocked at −80 °C, until analysis, to prevent the potential degradation of unstable products.
The products of in vitro metabolism were identified using a high-resolution mass spectrometer (Q-Exactive Orbitrap, Thermo Scientific) coupled to an HPLC instrument (1200 system Agilent). All analytes were separated on an Ascentis C18 column (150 mm × 2.1 mm, 5 μm particle size) maintained at 35 °C. The elution mixture was composed of solvent A (0.1% formic acid in water for positive ionization mode and 0.05% acetic acid for negative ionization mode) and solvent B (acetonitrile). […] MS2-DIA scans were acquired at R = 17 500 and with variable collision energies ranging from 30 to 45, depending on the m/z of the parent ion.

Jurkat cells = assay: CFSE-based cytotoxic activity assay; conditions: concentration inducing cytotoxicity ≥30%, 3 days
THP1 cells [2] = assay: Fixed-concentration screening of differentiation (CD14) and apoptosis (annexin V) in THP1, with or without uridine; format: cell-based, human; conditions: THP1, 0.1 μM
Experimental: DMSO (dimethyl sulfoxide) acts as the negative control group as it was used to solubilize hDHODH inhibitors. ∗, ∗∗, ∗∗∗ represent the statistical significance for apoptosis (respectively p < 0.05, < 0.01, and <0.001). #, ##, and ### represent the statistical significance for differentiation (respectively p < 0.05, <0.01, and <0.001). The statistical significance is calculated by comparing the compounds to DMSO.
The statistical significance is calculated by comparing the compounds to DMSO.

U937 cells [3] = assay: Annexin V apoptosis assay in U937; conditions: EC50 ratio vs brequinar
THP1 cells [4] = assay: Annexin V apoptosis assay in THP1; conditions: EC50 ratio vs brequinar
[5] = LogD7.4, shake-flask n-octanol/PBS; conditions: n-octanol/PBS, pH 7.4
U937 cells [6] = assay: Differentiation assay (CD11b expression) in U937; conditions: EC50 ratio vs brequinar

Row | time after which parent compound was no longer present ([1]; rat-liver microsomes with regenerating system) [min] | logD [5] | SMILES | metabolites identified in sample C [1] | cytoxicity Jurkat (effect ≥30% ± SD) (Jurkat cells) [µM] | metabolic stability ([1]; rat-liver microsomes, 2 h) | activity in cells (differentiation and apoptosis) (THP1 cells [2]) | efficacy in comparison with brequinar, apoptosis U937 (U937 cells [3]) [times] | superiority to brequinar, apoptosis THP1 (THP1 cells [4]) [times] | efficacy in comparison with brequinar, differentiation U937 (U937 cells [6]) [times]
1 |  |  | O=C(Nc1c(F)c(F)c(-c2ccccc2)c(F)c1F)c1c(O)nn2ccccc12 [Compound 1] | monohydroxylated, dihydroxylated, and methoxylated metabolites |  |  |  |  |  | 
2 | ≤ 30 | 3.28 ± 0.12 | CCCOc1cccc(-c2c(F)c(F)c(NC(=O)c3c(O)nn4ccccc34)c(F)c2F)c1 [Compound 17, 2-Hydroxy-N-(2,3,5,6-tetrafluoro-3′-propoxy-[1,1′-biphenyl]-4-yl)pyrazolo[1,5-a]pyridine-3-carboxamide] | monohydroxylated and dealkylated metabolites | >100 | fast metabolism; also recorded: weaker in vitro stability | highly active | 19 | 13 | 41
